The record followed here is PubChem BioAssay (NCI).

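96-well plates; 48 h exposure; 5 concentrations. Endpoints by linear interpolation between flanking doses. Not reached: highest tested concentration assigned. At the GI50, growth is halved. Definition used: TGI = concentration required for complete inhibition of growth.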

Test systems include OVCAR-3 ovarian; LOX IMVI melanoma; MALME-3M melanoma; A498 renal; SK-OV-3 ovarian; PC-3 prostate; SNB-75 CNS; MDA-MB-435; SF-295 CNS; HT29 colon.
Holding throughout (experiment): inhibition of tumour cell growth, NCI panel, 48 h

Regarding `CC(CNC(Cc1ccccc1)c1ccccc1)NC(Cc1ccccc1)c1ccccc1` (stereo not given), the GI50 with OVCAR-3 ovarian was 2.07 µM; in the assay with LOX IMVI melanoma, 1.62 µM; with MALME-3M melanoma, 1.68 µM; in the assay with A498 renal, 2.26 µM; in the assay on SK-OV-3 ovarian it was 5.34 µM; in the assay on PC-3 prostate it was 2.3 µM. Also, the GI50 in the assay on SNB-75 CNS is 2.07 µM; in the assay with MDA-MB-435, 2.1 µM; with SF-295 CNS, 1.52 µM; with HT29 colon, 1.97 µM. The TGI in the assay with OVCAR-3 ovarian worked out at 4.56 µM; with LOX IMVI melanoma it was 2.98 µM; in the assay with MALME-3M melanoma it was 3.36 µM; in the assay with A498 renal it was 5.02 µM; in the assay with SK-OV-3 ovarian, 16.8 µM; in the assay on PC-3 prostate it was 6.42 µM. The TGI with SNB-75 CNS is 11.7 µM; with MDA-MB-435 it was 4.99 µM; in the assay on SF-295 CNS it was 3.27 µM; with HT29 colon, 4.04 µM.
Consider `Cn1ccnc1C(=O)/C=C/c1ccc(CC(=O)Nc2ccccc2)cc1`, for which the GI50 with OVCAR-3 ovarian is 1.87 µM; in the assay with LOX IMVI melanoma it was 1.03 µM; in the assay with MALME-3M melanoma, 5.93 µM; in the assay on A498 renal it was 6.08 µM; with SK-OV-3 ovarian it was 9.3 µM; in the assay with PC-3 prostate it was 3.29 µM. For the same molecule, the GI50 was above 25 µM in the assay on SNB-75 CNS, 4.3 µM in the assay on MDA-MB-435, 5.44 µM in the assay on SF-295 CNS and 2.4 µM in the assay with HT29 colon. Besides, the TGI is 5.37 µM with OVCAR-3 ovarian; 4.27 µM in the assay on LOX IMVI melanoma; 22 µM in the assay with MALME-3M melanoma; 14.5 µM in the assay on A498 renal; above 25 µM with SK-OV-3 ovarian; 8.55 µM in the assay on PC-3 prostate. Further, the TGI in the assay with SNB-75 CNS is above 25 µM; in the assay with MDA-MB-435, 13.7 µM; in the assay on SF-295 CNS it was 16.5 µM; in the assay with HT29 colon, 6.82 µM.
As to `Fc1cccc(COc2ccc(Nc3ncnc4cc(-c5ccc[nH]5)sc34)cc2Cl)c1`, the GI50 with OVCAR-3 ovarian was 0.151 µM; in the assay with LOX IMVI melanoma it was 8.04 µM; in the assay with MALME-3M melanoma, 2.65 µM; in the assay with A498 renal, 2.27 µM; with SK-OV-3 ovarian, 2.41 µM; in the assay with PC-3 prostate, 0.77 µM. Moreover, the GI50 in the assay on SNB-75 CNS is 1.19 µM; in the assay with MDA-MB-435, 6.11 µM; in the assay with SF-295 CNS, 0.548 µM; in the assay on HT29 colon it was 7.47 µM. The TGI was 2.99 µM with OVCAR-3 ovarian; above 22.4 µM in the assay with LOX IMVI melanoma; 14.6 µM in the assay with MALME-3M melanoma; above 17.7 µM with A498 renal; 20.1 µM with SK-OV-3 ovarian; above 15.7 µM with PC-3 prostate. Moreover, the TGI was 6.35 µM with SNB-75 CNS, above 25 µM in the assay with MDA-MB-435, above 19.9 µM in the assay with SF-295 CNS and above 20.6 µM with HT29 colon.
`COc1cc(-c2cn(-c3ccc(Cl)cc3)c(C)c2C(=O)C(F)(F)F)cc(OC)c1OC`: the GI50 in the assay on OVCAR-3 ovarian was above 100 µM; with LOX IMVI melanoma, above 100 µM; in the assay on MALME-3M melanoma, above 100 µM; in the assay on A498 renal, 27.2 µM; with SK-OV-3 ovarian, above 100 µM; with PC-3 prostate, 13.6 µM. Moreover, the GI50 with SNB-75 CNS is 56.9 µM; with MDA-MB-435, above 100 µM; in the assay on SF-295 CNS, above 100 µM; in the assay with HT29 colon, 73.2 µM. Further, the TGI in the assay on OVCAR-3 ovarian, with LOX IMVI melanoma, in the assay with MALME-3M melanoma, in the assay with A498 renal, in the assay on SK-OV-3 ovarian and in the assay on PC-3 prostate was above 100 µM each time. Moreover, the TGI in the assay on SNB-75 CNS, in the assay with MDA-MB-435, with SF-295 CNS and in the assay on HT29 colon was above 100 µM throughout.
For the molecule `CC1OC2CC(=O)OC2C2=C1C(=O)c1c(O)c3c(c(O)c1C2=O)C1CC(O)C3(O)C(C)O1` (stereo not given), the GI50 is 0.207 µM in the assay on OVCAR-3 ovarian; 0.104 µM in the assay on LOX IMVI melanoma; 0.142 µM in the assay on MALME-3M melanoma; 1.65 µM in the assay with A498 renal; 3.24 µM in the assay on SK-OV-3 ovarian; 0.533 µM in the assay with PC-3 prostate. Besides, the GI50 is 1.59 µM with SNB-75 CNS, 0.264 µM in the assay on MDA-MB-435, 0.975 µM in the assay on SF-295 CNS and 0.229 µM with HT29 colon. Also, the TGI in the assay with OVCAR-3 ovarian was 0.629 µM; in the assay on LOX IMVI melanoma it was 0.476 µM; with MALME-3M melanoma, 0.385 µM; in the assay on A498 renal, 3.42 µM; in the assay on SK-OV-3 ovarian it was 11.1 µM; in the assay with PC-3 prostate, 6.47 µM. For the same molecule, the TGI in the assay with SNB-75 CNS is 3.64 µM; in the assay on MDA-MB-435, 0.591 µM; in the assay on SF-295 CNS, 3.29 µM; in the assay on HT29 colon it was 1.14 µM.
Turning to `CC(=O)OCC1OC(n2ccc(=O)[nH]c2=O)C(OC(C)=O)C1OC(C)=O` (stereo not given), the GI50 in the assay with OVCAR-3 ovarian, in the assay on LOX IMVI melanoma, in the assay on MALME-3M melanoma, with A498 renal, in the assay on SK-OV-3 ovarian and with PC-3 prostate was above 100 µM throughout. The GI50 in the assay on SNB-75 CNS, in the assay on MDA-MB-435, in the assay with SF-295 CNS and in the assay with HT29 colon was above 100 µM in each case. In addition, the TGI in the assay on OVCAR-3 ovarian, in the assay with LOX IMVI melanoma, in the assay with MALME-3M melanoma, with A498 renal, in the assay on SK-OV-3 ovarian and with PC-3 prostate was above 100 µM each time. The TGI in the assay with SNB-75 CNS, in the assay on MDA-MB-435, in the assay on SF-295 CNS and with HT29 colon was above 100 µM throughout.
As to `Cc1cc2c3ccccc3n(C)c2c2c1C(=O)C=CC2=O`, the TGI with OVCAR-3 ovarian was 28.3 µM; with LOX IMVI melanoma, 32.9 µM; in the assay on MALME-3M melanoma, 45.7 µM; in the assay with A498 renal it was 35.5 µM; in the assay with SK-OV-3 ovarian it was 53.4 µM; with PC-3 prostate, 21.5 µM. Further, the TGI was 60 µM with SNB-75 CNS, 45.2 µM in the assay with MDA-MB-435, 54.3 µM with SF-295 CNS and 20.5 µM with HT29 colon.
`CN(C)c1ccc2cc(-c3ccccc3F)c(N)nc2c1`: the GI50 was 0.922 µM with OVCAR-3 ovarian; 2.69 µM in the assay on LOX IMVI melanoma; 1.71 µM in the assay on MALME-3M melanoma; 2.32 µM with A498 renal; 2.52 µM in the assay on SK-OV-3 ovarian; 2.21 µM with PC-3 prostate. Besides, the GI50 in the assay on SNB-75 CNS was 1.86 µM; in the assay on MDA-MB-435, 0.288 µM; in the assay on SF-295 CNS, 1.04 µM; in the assay on HT29 colon it was 0.529 µM. Further, the TGI in the assay with OVCAR-3 ovarian was 7.62 µM; in the assay with LOX IMVI melanoma it was 15.1 µM; in the assay with MALME-3M melanoma, 15.9 µM; in the assay on A498 renal, 15.2 µM; in the assay on SK-OV-3 ovarian, 12.2 µM; with PC-3 prostate, 15.2 µM. For the same molecule, the TGI came to 9.69 µM in the assay on SNB-75 CNS, 10.3 µM with MDA-MB-435, 12.4 µM in the assay on SF-295 CNS and 11 µM with HT29 colon.
